Laboratory results from a melting point compilation (Tetko et al.; mined from patent text by program, amines drawn as free bases though some values may be those of a salt).

First: CC(C)C1(C)N=C(c2nc3occc3cc2C(=O)O)NC1=O (stereo not given)
Second: CC(C)n1nc(-c2cnc(N)nc2-c2ccccc2)ccc1=O
The melting point of the first is higher: 237 to 244 °C for the first, 214 to 215 °C for the second.

First: N#CC1CN1C(=O)NC(=O)c1ccc2ccccc2c1 (stereo not given)
Second: O=C(O)c1ccc(CNS(=O)(=O)c2ccccc2)cc1
The melting point of the first is lower: 164 to 166 °C for the first, 223 to 227 °C for the second.

First: CCOCc1nc2c(N)nc3c(c2n1NCCCNC(=O)NC(C)C)CCCC3
Second: Nc1nc(OCC2CCCCC2)c2c(n1)=NC(=O)N=2
The melting point of the first is lower: 185 to 187 °C for the first, 297 °C for the second.

Compared with `Cc1nc(OCC(F)(F)F)c([N+](=O)[O-])c(N2CCC(c3ccc(F)cc3)CC2)n1`, `CCn1cc(-c2ccc3c(c2)c(C2CCN(CCN4CCNC4=O)CC2)cn3-c2ccc(F)cc2)nn1` is higher in melting point: 61 to 64 °C for the first, 132 to 134 °C for the second.

First: COc1ccc(N2CC(=O)N(CCN)C2=O)cc1OC
Second: CCCCOC(=O)c1nn(-c2ccc(I)cc2)c(C)cc1=O
The melting point of the first is higher: 162 to 164 °C for the first, 134 to 137 °C for the second.

First: Cc1ccc(C)c(OCc2ccccc2C(=O)O)c1
Second: COc1cc(Br)c(C(C)=NOCc2ccc([N+](=O)[O-])cc2)cc1O
The melting point of the first is higher: 162 to 163 °C for the first, 137 to 138 °C for the second.

Compared with `OCCCc1nc2cccnc2[nH]1`, `CCOC(=O)c1cncc(OC)c1CCCO` is lower in melting point: 151 to 153 °C for the first, 85 to 89 °C for the second.

Compared with `O=C1CC(O)CC(/C=C/c2cccc(Cl)c2Cl)O1` (stereo not given), `Cc1nc2c3c(ccc2n1C1CC1)C(=O)[C@H](O)[C@@H](c1ccccc1)O3` is higher in melting point: 122 to 123 °C for the first, 178 °C for the second.

Compared with `OCc1cc(F)nc(F)c1`, `Nc1nc(N)c2cc(Cc3ccc(Cl)c(Cl)c3)ccc2n1` is higher in melting point: 66 to 67 °C for the first, 150 to 151 °C for the second.

First: CCN(C(=S)Nc1cc(Cl)ccc1C)c1c(C)nn(C)c1C
Second: Cc1cnc2c(=O)[nH]c3ccc(Cl)cc3n12
The melting point of the first is lower: 144 to 145 °C for the first, > 300 °C for the second.

Compared with `COC=C(C(=O)OC)N(C)c1ccnc(-c2ccccc2)n1`, `COc1cccc(CNC(=O)c2nc3scc(-c4ccccc4)c3c(=O)[nH]2)c1` is higher in melting point: 152 to 154 °C for the first, 177 to 178 °C for the second.

First: Cn1ncc2c1-c1c(Oc3ccc(CC(=O)O)cc3)sc(C(N)=O)c1CC2
Second: O=C1NC(=O)C(c2cn3c4c(cccc24)CCC3)=C1c1ccc(OCc2ccccc2)cc1
The melting point of the first is lower: 213 to 214 °C for the first, 262 to 265 °C for the second.

First: OC(CCN1CCN(c2ccccc2)CC1)COc1cccc(C(F)(F)F)c1 (stereo not given)
Second: FC(F)(F)c1ccc2sc(C3=CCN(Cc4ccccc4)CC3)nc2c1
The melting point of the first is lower: 73 to 74 °C for the first, 124 to 125 °C for the second.

Compared with `Cc1cc(C(=O)N2Cc3ccccc3Cc3ccccc32)ccc1N`, `CC(=O)SCC(Cc1ccccc1)C(=O)Nc1cccc(C(=O)OCc2ccccc2)c1` (stereo not given) is lower in melting point: 203 to 204 °C for the first, 108 to 109 °C for the second.

Compared with `N=C(Nc1ccc(Cl)cc1)Nc1ncccc1OCc1c(Cl)cccc1Cl`, `Cc1ccccc1S(=O)(=O)NC(=O)CCc1cc(OC(C)C)nn1Cc1ccc(Cl)cc1Cl` is lower in melting point: 192 to 195 °C for the first, 165 to 166 °C for the second.

First: CCc1[nH]c(=O)[nH]c1-c1cc(C(C)(C)C)c(O)c(C(C)(C)C)c1
Second: CC(C)(C)c1cc(CCC2NC(=O)NC2=O)cc(C(C)(C)C)c1O (stereo not given)
The melting point of the first is higher: 267 to 270 °C for the first, 207 to 208 °C for the second.

First: C#CCNc1ccc([N+](=O)[O-])cc1C
Second: CNc1c([N+](=O)[O-])c(Br)nn1Cc1ccccc1
The melting point of the first is higher: 121 to 123 °C for the first, 116 °C for the second.

First: O=S(=O)(c1nc(-c2ccc(F)cc2)c(-c2cccs2)[nH]1)C(F)(F)C(F)F
Second: Cc1cc(C(=O)N2CC(O)C2)ncc1C(c1cc(F)ccc1F)S(=O)(=O)c1ccc(F)cc1 (stereo not given)
The melting point of the first is lower: 192 to 193 °C for the first, 219 to 221 °C for the second.

First: C[C@H](NC(=O)CCC(=O)NO)C(=O)N1CCC[C@H]1C(=O)O
Second: O=C(NCC12CC3CC(CC(C3)C1)C2)c1cc(-c2nccnc2N2CCC(C(=O)O)CC2)ccc1Cl
The melting point of the first is higher: 195 to 196 °C for the first, 136 to 140 °C for the second.

First: CC(C)C(C#N)NC(=O)c1snc(Cl)c1Cl (stereo not given)
Second: COC(=O)Oc1c(Cl)cc(Cl)cc1[N+](=O)[O-]
The melting point of the first is higher: 120 to 121 °C for the first, 60 to 61 °C for the second.

First: CN1CC(CCN2CCC(c3c[nH]c4ccccc34)CC2)C=C2c3cccc4[nH]cc(c34)CC21 (stereo not given)
Second: Cc1cc(-c2cccc3[nH]ccc23)nc(N)n1
The melting point of the first is lower: 184 to 187 °C for the first, 242 to 244 °C for the second.

First: C=CCN1CCC23c4c5ccc(O)c4OC2C(=NO)CCC3(O)C1C5 (stereo not given)
Second: CCc1c2c(c(C)c(C)c1N1CCN(c3ccc(OC)cc3)CC1)OC(C)(C)C2
The melting point of the first is lower: 119 °C for the first, 150 to 151 °C for the second.

Compared with `O=CC(=Cc1ccc([N+](=O)[O-])s1)c1ccc(Br)cc1`, `CCCC[C@]1(CC)CSc2cc(OC)c(OC)cc2[C@@H](c2ccccc2)N1` is lower in melting point: 105 to 108 °C for the first, 64 to 66 °C for the second.

First: CC1CCCN1CCCN1C(=C(C#N)C#N)N(CCCN2CCCC2C)c2ccccc21 (stereo not given)
Second: Cc1oc(-c2ccccc2)nc1CCC#N
The melting point of the first is higher: 83 to 85 °C for the first, 63 to 64 °C for the second.

Compared with `Cc1ccc2nc(NC3=NCCN3)[nH]c2c1C`, `CCCCn1c(=O)cn[nH]c1=O` is lower in melting point: 199 to 204 °C for the first, 135 °C for the second.
